{
  "source": "patent US20080241919A1",
  "about": "“Defined media for pluripotent stem cell culture” (The Burnham Institute of Medical Research, priority 2003, published 2008)",
  "key": {"[1]": {"system": "human embryonic stem cells (hESCs)", "experiment": "Medium component requirement assay, hESCs on laminin/collagen-coated plates for seven days", "format": "cell-based", "experimental": "(a) Media containing bFGF, insulin, and ascorbic acid sustain the healthy undifferentiated growth of hESCs on laminin/collagen-coated plates. Insulin (20 μg/ml), transferrin (8 μg/ml), albumin (for example, the commercial product known as AlbuMAXI) (10 mg/ml), and ascorbic acid (50 μg/ml) were added to a base medium that consisted of 100% DMEM/F-12 with 20 ng/ml bFGF, 2 mM L-alanyl-L-glutamine, 1×MEM essential amino acids solution, 1×MEM non-essential amino acids solution, and 100 μM β-mercaptoethanol. The degree of differentiation was judged by morphology of the colonies and Oct-4 expression. […] (red). […] However, if ascorbic acid was omitted from the media [D, H, L] […] White arrows in all panels delineate the edge of an hESC colony. The area delineated by the white square in [A], [E], and [I] indicates the approximate area that is visualized at higher magnification in [B, C], [F, G], and [J, K], respectively. [C], [G], and [K] is the image in [B], [F], and [J], respectively, merged with DAPI staining of their nuclei (blue).\n(b) When either bFGF or insulin was omitted from the media, hESC colonies appeared to differentiate completely under the feeder- and serum-free conditions. […] The distinct growth effects of insulin and bFGF were further accentuated in media lacking ascorbic acid [C, F] (“NO Ascorbic Acid”). In the absence of ascorbic acid and in media that contained only insulin as the growth factor [C] (phase) (“NO Ascorbic Acid”), slower growth of the differentiated hESCs was observed (compare [A, B] to [C]). In ascorbic-acid-lacking media that contained bFGF as the only growth factor [F] […] White arrows in all panels delineate the edge of hESC colonies.\nHaving determined that substantial numbers of undifferentiated hESCs could be maintained over long periods in feeder-free environments using the bFGF-supplemented media described above, the necessity of other components in the medium to maintain hESCs in an undifferentiated state was next examined. “Knockout Serum Replacement” contains insulin, transferrin, ascorbic acid, amino acids, and AlbuMAX (a chromatographically-purified lipid-rich bovine serum albumin [BSA] with low IgG content, but nevertheless a xeno-derived product). Accordingly, whether insulin, transferrin, BSA, and ascorbic acid were essential components was assessed, in combination with bFGF, for maintaining hESCs in an undifferentiated state. The serum replacement components insulin (20 μg/ml), transferrin (8 μg/ml), albumin (AlbuMAX) (10 mg/ml), and ascorbic acid (50 μg/ml) were added to a base medium that consisted of DMEM/F-12 or KO-DMEM with bFGF (20 ng/ml), L-alanyl-L-glutamine or L-glutamine (2 mM), MEM essential amino acids solution (1×), MEM nonessential amino acids solution (1×), and β-mercaptoethanol (100 μM). To assay for the differentiation-forestalling activity of each of these components, undifferentiated hESCs were seeded on laminin/collagen-coated plates and cultivated for seven days in media containing one or more of the individual components. The degree of differentiation of the colonies was judged by defining morphology and Oct-4 expression.\nWhen either bFGF or insulin was omitted from the media, more than 90% of the colonies appeared to differentiate completely within the first passage, as indicated by their differentiated morphology (FIG. 2b, A,B,D,E), their complete loss of Oct-4 expression, and their expression of the cell surface marker SSEA-1 (FIG. 2c, B,C). […] The different effects of insulin and bFGF were accentuated further in media lacking ascorbic acid. In the absence of ascorbic acid and in media containing only insulin, the growth of differentiated hESCs was simply slower (FIG. 2b, C). […] Although albumin and transferrin are not crucial components for sustaining the undifferentiated growth of hESCs, they might abet survival or maintenance of a normal colony shape."}, "[2]": {"system": "human embryonic stem cells (hESCs)", "experiment": "Other growth factors in place of bFGF for undifferentiated growth of hESCs", "format": "cell-based", "conditions": "feeder- and serum-free conditions", "experimental": "All the growth factors were dissolved in a PBS buffer that contained 0.5% BSA, 1 mM DTT (Dithiothreitol) and 10% glyceral as a 10 μg/ml (500×) stock solution and stored in aliquots at −80° C. These factors were added individually to the hESC cultures at a concentration of 20 ng/ml, in the absence of bFGF or in the presence of a low concentration of bFGF (4 ng/ml). Seven days after seeding undifferentiated hESCs on laminin/collagen-coated plates, the cultures were examined."}, "[3]": {"system": "acetylated histone H3 and H4, Myc, Tip60 HAT, p300 HAT", "experiment": "Chromatin state immunofluorescence (acetylated H3/H4, Myc, Tip60, p300) in hESCs", "format": "cell-based, human", "conditions": "named factor omitted from the media", "from_the_text": "(c) Presence of both bFGF and insulin is essential for maintenance of an acetylated transcriptionally active chromatin state in undifferentiated hESCs. When either bFGF or insulin is omitted from the media, the differentiated hESC colonies express the differentiation-associated cell surface marker SSEA-1 [B, C] […] (green), Myc [E, F] (red), and histone acetyltransferase (HAT) Tip60 [I, K] (green) and p300 [J, K] […] All cells are indicated by DAPI staining of their nuclei (blue).\nTo discover the minimal essential conditions needed to support the long-term growth of undifferentiated hESCs, morphological analysis was used to assess the developmental stage of hESCs at different times. For these analyses hESCs were grown in a 6- or 12-well plate to maturation (day 6 or 7 after seeding) before being fixed and visualized under a phase contrast microscope. Cellular immunofluorescence was also employed to assess the state of differentiation of hESCs. […] The state of differentiation of hESC was further assessed by generating (via lentiviral-mediated transduction) hESCs carrying a reporter gene (enhanced green fluorescence protein (EGFP)) under control of the Oct-4 promoter. Using these transfected hESCs (carrying Oct-4 driven EGFP), the undifferentiated state of hESCs can be visualized by green fluorescence (indicating Oct-4 expression). […]"}, "[4]": {"system": "human embryonic stem cells (hESCs)", "experiment": "Growth of hESCs on purified matrix protein-coated plates", "format": "cell-based", "conditions": "hESC media containing 20 ng/ml bFGF", "from_the_text": "(e) Characterization of hESCs maintained on matrix protein-coated plates in the defined hESC media - Determining the Minimal Essential Matrix. hESCs maintained on a laminin-coated plate have a classic undifferentiated morphology [A] (phase image) and express Oct-4 [B, C] (red). [C] is the image in [B] merged with DAPI staining of their nuclei (blue). White arrows delineate the edge of an hESC colony. The area delineated by the white square in [A] indicates the approximate area that is visualized at higher magnification in [B, C]. […] Red arrows in [D-F] indicate that the differentiated colony consisted of dense centers containing cyst-like structures and necrotic cells. Laminin, therefore, appeared to be the minimal sufficient matrix protein.\nHaving established that bFGF, insulin, and ascorbic acid were important minimal components of a feeder-free culture system, the growth of hESCs on purified matrix proteins, including human laminin-, fibronectin-, or collagen IV-coated plates in hESC media containing 20 ng/ml bFGF, was further examined."}},
  "data": [
    {"compound": "O=C1O[C@H]([C@@H](O)CO)C(O)=C1O", "note": "[ascorbic acid, reference compound]", "values": [
      {"measurement": "cyst-like structures and necrotic cells within dense cores of differentiated hESC colonies", "setting": "[1]; absence of ascorbic acid, media containing only bFGF", "result": "became more severe"},
      {"measurement": "growth of differentiated hESCs", "setting": "[1]; absence of ascorbic acid, media containing only insulin", "result": "simply slower"},
      {"measurement": "appearance of hESC colonies", "setting": "[1]; ascorbic acid omitted from the media", "result": "very dense at their core and necrotic"}
    ]},
    {"compound": "EGF: epidermal growth factor (NSDSECPLSHDGYCLHDGVCMYIEALDKYACNCVVGYIGERCQYRDLKWWELR; Epidermal growth factor; UniProt P01133 971-1023, looked up)", "values": [
      {"measurement": "ability to replace bFGF in supporting undifferentiated growth of hESCs", "setting": "[2]", "result": "can not replace bFGF"}
    ]},
    {"compound": "IGF-I: insulin-like growth factor-I", "values": [
      {"measurement": "ability to replace bFGF in supporting undifferentiated growth of hESCs", "setting": "[2]", "result": "can not replace bFGF"}
    ]},
    {"compound": "IGF-II: insulin-like growth factor-II", "values": [
      {"measurement": "ability to replace bFGF in supporting undifferentiated growth of hESCs", "setting": "[2]", "result": "can not replace bFGF"}
    ]},
    {"compound": "PDGF: platelet-derived growth factor-AB", "values": [
      {"measurement": "ability to replace bFGF in supporting undifferentiated growth of hESCs", "setting": "[2]", "result": "can not replace bFGF"}
    ]},
    {"compound": "VEGF", "values": [
      {"measurement": "ability to replace bFGF in supporting undifferentiated growth of hESCs", "setting": "[2]", "result": "can not replace bFGF"}
    ]},
    {"compound": "aFGF: acidic fibroblast growth factor", "values": [
      {"measurement": "ability to replace bFGF in supporting undifferentiated growth of hESCs", "setting": "[2]", "result": "can not replace bFGF"}
    ]},
    {"compound": "albumin: chromatographically-purified lipid-rich bovine serum albumin with low IgG content", "values": [
      {"measurement": "shape of hESC colonies", "setting": "[1]; absence of albumin", "result": "more flat and spread out"}
    ]},
    {"compound": "insulin: human recombinant insulin from Sigma, medium component", "values": [
      {"measurement": "cell morphology in differentiated colonies", "setting": "[1]; media that contained only the named growth factor", "result": "Large round cells"},
      {"measurement": "immunoreactivity to acetylated H3 and H4, Myc, Tip60 HAT, nuclear focal localization of p300 HAT", "setting": "[3]", "result": "undetectable or weak immunoreactivity"}
    ]},
    {"compound": "laminin", "values": [
      {"measurement": "hESC colonies remaining undifferentiated (morphology, Oct-4)", "setting": "[4]", "result": "more than 80%"}
    ]},
    {"compound": "transferrin: serum replacement component added at 8 μg/ml", "values": [
      {"measurement": "number of hESC colonies", "setting": "[1]; absence of transferrin", "result": "fewer total hESC colonies"}
    ]}
  ]
}
